Legend:
Type in all cases: cell-based
[1] = system: CTGF promoter activation by FGK; experiment: Inhibition of CTGF promoter activation by FGK: pCTGF-luc reporter in HEK293 cells transfected with human FGK; conditions: HEK293 cells transfected with pCTGF-luc and human FGK plasmid; 24 hours with compound; DMSO control = 100%; read-out: Example 7 Inhibition of pCTGF-luc activity IC50
Description: Using Dulbecco's modified Eagle's medium (DMEM) containing 10% fetal bovine serum, HEK293 cells (obtained from ATCC) were dispensed in 1×10^5 cells per well portions into a 24-well plate (Asahi Technoglass) and cultured at 37° C. for 24 hours. Transfection of 0.1 μg of a reporter plasmid and 0.5 μg at the maximum of a human FGK expression plasmid which is 0.6 μg in total per well was carried out using a transfection reagent (FuGENE6; Boehringer-Roche) in accordance with the instructions attached thereto. In this case, the amount of the transfected genes in each of the all wells was adjusted to 0.6 μg in total per well by adding a plasmid vector (pcDNA3.1; Invitrogen). Cells transfected with the pcDNA3.1 vector alone without containing FGK, together with the reporter plasmid, was used as the control. The medium was discarded 24 hours after transfection, and the residue was lysed by adding 100 μl per well of a cell lysis buffer. A […] portion of the lysate was mixed with 100 μl of a luciferin substrate solution and allowed to undergo the reaction to be measured using a luminometer (ML3000; Dynatech Laboratories). Activation of the CTGF promoter and COLIA2 promoter by the expression of FGK was observed. Additionslly, dose-dependent activation by FGK was also observed.
Screening of a test compound constructed in Example 3 was carried out using the CTGF promoter activation system by FGK.
HEK293 cells (obtained from ATCC) were plated at 1×10^4 cells per well into 96-well plates (Asahi Technoglass) in Dulbecco's modified Eagle's medium containing 10% fetal bovine serum (DMEM). After incubation for 24 hours at 37° C., cells were transfected with 0.02 μg of pCTGF-luc (cf. Example 2) and 0.02 μg of a human FGK expression plasmid which is 0.04 μg in total per well was carried out using a transfection reagent (FuGENE6; Boehringer-Roche). After incubation for 6 hours at 37° C., a dimethyl sulfoxide solution of each test compound was added thereto to become a final concentration of 30 µM, 10 μM, 3 μM, […], 0.3 μM or […], and then incubated at 37° C. for additional 24 hours. Thereafter, the reporter activity was measured to determine 50% activity inhibition concentration (IC50) of each test compound. As a control of the compound treatment, reporter activity when the same volume of dimethyl sulfoxide alone was added was regarded as 100%. Other conditions and measurement of reporter activity were as described in Example 3. Substances which inhibit CTGF promoter activation by FGK were selected, and the substances having an IC50 value of 10 μM or less were shown in Table 1. It was confirmed that a substance which inhibits CTGF expression by the assay system, namely a substance useful as a renal failure treating agent can be certainly be screened.

CTGF mRNA expression = experiment: Inhibition of intrinsic CTGF mRNA expression in primary human proximal renal tubule epithelium cells (RPTEC), real time PCR; conditions: 10 μM compound, 24 hours, CTGF/G3PDH, DMSO control = 100%
Description: Primary culture cells of human proximal renal tubule epithelium (RPTEC; Asahi Technoglass) were plated at 2×10^5 cells per well into 12-well plates (Asahi Technoglass) using a proliferation medium for kidney epithelial cell use (Burette Kit REGM; Asahi Technoglass). After incubation for 24 hours at 37° C., each of the test compounds obtained in Example 5 (substances which inhibit FGK activity, namely FGK inverse agonists) was added thereto to a final concentration of 10 μM, and then incubated for additional 24 hours at 37° C. Thereafter, the cells were collected and the total RNA was purified using a spin column (RNeasy Mini Kit; Qiagen). Reverse transcription reaction was carried out using 1.5 μg of the total RNA and a reverse transcriptase (PowerScript Transcriptase; BD Biosciences) to obtain cDNA samples. Using each of them as the template, expressed amounts of CTGF and a housekeeping gene of glyceraldehyde 3-phosphate dehydrogenase (to be referred to as G3PDH hereinafter) were measured by real time PCR using PRISM 7700 Sequence Detector (PERKIN ELMER). In the PCR, SYBR Green PCR Master Mix (Applied Biosystems) was used, and after heating at 50° C. (2 minutes) and 95° C. (10 minutes), a cycle of 95° C. (15 seconds)/60° C. (60 seconds) was repeated for 40 times. For the detection of CTGF, an oligonucleotide represented by SEQ ID NO:17 was used as the forward primer, and an oligonucleotide represented by SEQ ID NO:18 was used as the reverse primer. For the detection of G3PDH, an oligonucleotide represented by SEQ ID NO:19 was used as the forward primer and an oligonucleotide represented by SEQ ID NO:20 was used as the reverse primer. A value calculated by dividing the expressed amount of CTGF by the expressed amount of G3PDH, both obtained by the PCR, was defined as the CTGF expression quantity per unit RNA quantity. Also, as a control of the compound treatment, the CTGF expression quantity per unit RNA quantity when the same volume of dimethyl sulfoxide alone was added was regarded as 100%. The inhibitory activity of CTGF expression obtained by the assay (inhibitory activity at a compound concentration of 10 μM) is shown in Table 1.

human FGK = biological target: T1, human FGK (Homo sapiens, UniProt Q9BXA5, A284G/P282A); experiment: Screening of substances inhibiting FGK activity: pEF-BOS-Gqi + pSRE-luc luciferase reporter in HEK293 cells transfected with human FGK; conditions: pEF-BOS-Gqi and human FGK plasmid, 24 hours with compound, DMSO control = 100%, read-out: Example 5 Inhibition of pGqi + pSRE-luc reporter activity IC50
T1 construct: A complete cDNA coding for the FGK of the present invention was obtained by PCR using a human kidney cDNA; expressed in transfected cells; host or cells: HEK293 cells (ATCC), transient transfection with FuGENE6
T1 sequence (Q9BXA5 5-334 P282A/A284G): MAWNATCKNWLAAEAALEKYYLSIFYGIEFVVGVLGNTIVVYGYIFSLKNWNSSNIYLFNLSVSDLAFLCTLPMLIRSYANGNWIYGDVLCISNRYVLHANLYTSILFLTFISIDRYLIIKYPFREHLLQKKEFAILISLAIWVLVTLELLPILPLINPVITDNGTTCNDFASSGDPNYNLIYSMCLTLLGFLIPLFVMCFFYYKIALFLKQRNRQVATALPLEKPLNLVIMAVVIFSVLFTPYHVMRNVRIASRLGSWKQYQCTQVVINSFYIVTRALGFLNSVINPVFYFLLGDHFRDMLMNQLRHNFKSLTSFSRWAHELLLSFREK
Description: An expression plasmid used in the Example for expressing a chimeric protein of Gq and Gi was prepared by cloning, a gene (hereinafter, to be referred to as Gqi gene) constructed by replacing 5 amino acids in the Gq C-terminal side (Glu-Tyr-Asn-Leu-Val; the amino acid sequence represented by SEQ ID NO:15) with 5 amino acids in the Gi C-terminal side (Asp-Cys-Gly-Leu-Phe; the amino acid sequence represented by SEQ ID NO:16) in accordance with the method of Conklin, B. R. et al. (Nature, 363, 274-276, 1993) into the plasmid pEF-BOS-dhfr. The constructed plasmid was named pEF-BOS-Gqi.
As the illustrative method, firstly, using Dulbecco's modified Eagle's medium (DMEM) containing 10% fetal bovine serum, HEK293 cells (obtained from ATCC) were dispensed in 1×10^5 cells per well portions into a 24-well plate (Asahi Technbglass) and cultured for 24 hours. Then transfection of 0.05 μg of a reporter plasmid pSRE-luc in which a serum response sequence was inserted into upstream of a luciferase gene (PathDetect™ SRE cis-Reporting System; Stratagene), 0.05 μg of pEF-BOS-Gqi and 0.5 μg at the maximum of a human FGK expression plasmid which is 0.6 μg in total per well was carried out using a transfection reagent (FuGENE6; Boehringer-Roche). Cells transfected with the pcDNA3.1 vector alone without containing FGK, together with the reporter plasmid and pEF-BOS-Gqi, was used as the control. Other conditions and measurement of the reporter activity were as described in Example 3. Increase in the reporter activity by the expression of FGK was observed. Additionally, dose-dependent activation by FGK was also observed.
Screening of a test substance was carried out using the screening system which uses changes in FGK activity as the index, constructed in Example 4.
Using 10% fetal bovine serum-containing Dulbecco's modified Eag;e's medium(DMEM),HEK293 cells(obtained from ATCC) were inoculated in 1×10^4 cells per well portions into a 96-well plate (Asahi Technoglass) and cultured at 37° C. for 24 hours. Transfection of 0.01 μg of the reporter plasmid pSRE-luc (Example 4), 0.03 μg of pEF-BOS-Gqi and 0.02 μg of a human FGK expression plasmid which is 0.06 μg in total per well was carried out using a transfection reagent (FuGENE6; Boehringer-Roche). After 6 hours of incubation at 37° C., a dimethyl sulfoxide solution of each test compound was added to become a final concentration of 30 μM, 10 μM, 3 μM, […], 0.3 μM or 0.1 μM, and then incubated at 37° C. for additional 24 hours. Thereafter, the reporter activity was measured to determine 50% activity inhibition concentration (IC50) of each test compound. As a control of the compound treatment, reporter activity when the same volume of dimethyl sulfoxide alone was added was regarded as 100%. Other conditions and measurement of reporter activity were as described in Example 4.

Row | SMILES | IC50 [1] [µM] | Example 6 Inhibition Intrinsic CTGF mRNA Expression at 10 μM (CTGF mRNA expression) [%] | IC50 (human FGK) [µM]
1 | CC(=O)Nc1nc(C)c(-c2csc(Nc3cccc(C)c3)n2)s1 [No 3, N-[4′-methyl-2-[(3-methylphenyl)amino]-4,5′-bi-1,3-thiazol-2′-yl]acetamide hydrobromate] | 2.6 | 79 | 0.6
2 | CCOC(=O)c1c(C)nn(-c2ccc(NC(=O)c3ccccc3C(=O)O)cc2)c1C [No 6, 2-[({4-[4-(ethoxycarbonyl)-3,5-dimethyl-1H-pyrazol-1-yl]phenyl}amino)carbonyl]benzoic acid] | 3.8 | 35 | 6.8
3 | CC(=O)Nc1ccc(-c2csc(Nc3cccc(C(F)(F)F)c3)n2)cc1 [No 4, N-[4-(2-{[3-(trifluoromethyl)phenyl]amino}-1,3-thiazol-4-yl)phenyl]acetamide] | 3.6 | 65 | 3.9
4 | Cc1cc(C(=O)C(F)(F)F)c(C)n1-c1ccc(NC(=O)c2ccccc2F)cc1 [No 7, N-{4-[2,5-dimethyl-3-(trifluoroacetyl)-1H-pyrrol-1-yl]phenyl}-2-fluorobenzamide] | 1.7 | 36 | 3.1
5 | CC(=O)Nc1nc(C)c(-c2csc(Nc3ccc(O)cc3)n2)s1 [No 5, N-{2-[(4-hydroxyphenyl)amino]-4′-methyl-4,5′-bi-1,3-thiazol-2′-yl}acetamide hydrobromate] | 1.8 | 81 | 2.5
6 | COc1ccc(Cl)cc1Nc1nc(-c2cccs2)cs1 [No 2, N-(5-chloro-2-methoxyphenyl)-4-(2-thienyl)-1,3-thiazole-2-amine] | 16.1 | 72 | 4.6
7 | CCOc1ccc(Nc2nc(-c3sc(N)nc3C)cs2)cc1 [No 1, N^2-(4-ethoxyphenyl)-4′-methyl-4,5′-bi-1,3-thiazole-2,2′-diamine] | 14.1 | 62 | 6.1

Source: US20050233304A1, “Method of screening remedy for renal failure” (YAMANOUCHI PHARMACEUTICAL CO., LTD., priority 2002, published 2005)
